Test results published in publication PMC3744471, “Mitochondria Are the Target Organelle of Differentiation-Inducing Factor-3, an Anti-Tumor Agent Isolated from Dictyostelium Discoideum” (PLoS ONE, 2013).

How the values were obtained:
3T3-L1 cells = assay: Cell growth assay (Alamar blue), 3T3-L1; assay type: cell-based, mouse; settings: for Effect on cell growth in 3T3-L1 cells: BODIPY-DIF-3 5–20 µM, CCCP 2–10 µM, 4 days; for IC50: Mus musculus, 72 h, 3T3-L1 cells, 3 days, Alamar blue
Method: HeLa, LM8, and 3T3-L1 cells were cultured for 3 days at 2.5–5×10^3 cells/well in 12-well plates with each well filled with 1 ml of DMEM-FBS (for HeLa and 3T3-L1) or MEM-α-FBS (for LM8) together with drugs at various concentrations. Then, the incubation media were discarded and the cells were washed with 1 ml of PBS(–) (20 mM phosphate buffered saline, pH 7.4) and incubated with 1 ml of fresh DMEM-FBS (HeLa and 3T3-L1) or MEM-α-FBS (LM8) containing 5% (v/v) of Alamar blue (a cell number indicator; Wako Pure Chemical Industries, Osaka, Japan) until the color changed. The relative cell number was assessed by measuring absorbance at 570 nm (reference at 595 nm) as described previously, [14]; DIF-related compounds and BODIPY-conjugated compounds hardly disturbed the cell number assessment with Alamar blue (data not shown), probably because the additive compounds were washed out when cell number was assessed. For determination of the 50% inhibitory concentration (IC50) of each drug, the cells were cultured for 3 days in the presence of each drug at various concentrations. Relative cell numbers were determined for each concentration for each drug and the IC50 was determined from the dose-response curves.
Supplementary file pone.0072118.s002.tif: Figure S2 Effects of BODIPY-DIF-3 and CCCP on cell growth, and cellular localization of BODIPY-DIF-3 in 3T3-L1 cells. (A) Cells were incubated for 4 days with 5–20 µM of BODIPY-DIF-3 (closed circles) or 2–10 µM of CCCP (closed triangles), and relative cell number was assessed by the use of Alamar blue. Data are the mean values and SD (bars) of three independent experiments. (B) Cells were incubated for 0.5 h or 3 days with 20 µM of BODIPY-DIF-3, washed free of the additive, and observed microscopically. (C) Cells were incubated for 0.5 h with BODIPY-DIF-3 (20 µM), Hoechst (0.1 µg/ml), and MitoTracker (0.1 µM), washed free of the additives, and observed by using a high-magnification fluorescence microscope. (D) Cells were incubated for 3 days with BODIPY-DIF-3 (20 µM) and then for 0.5 h with Hoechst (0.1 µg/ml) and MitoTracker (0.1 µM). Cells were washed free of the additives and observed by using a high-magnification fluorescence microscope. (TIF) Click here for additional data file.

[1] = test system: cyclin D1 and cyclin D3 in HeLa cells; assay: Western blotting of cyclin D expression; assay type: cell-based, human; settings: 20 h, DIF-3 20 µM, Bu-DIF-3 5–7.5 µM, BODIPY-DIF-3 20 µM, CCCP 10 µM, azide 0.01%
Method: HeLa cells were incubated for 20 h with 1 ml of DMEM-FBS containing the indicated additives in 12-well plates (2–4×10^5 cells/well), washed twice with PBS(–), harvested by adding 100–200 µl of an SDS-sample buffer solution (in proportion to cell density: relative cell number), sonicated (heated), and used for SDS-PAGE. Western blot transfer and immunoblotting were performed as described previously, by using a primary antibody for cyclin D1, cyclin D2, cyclin D3, or GAPDH, and a second antibody, an alkaline phosphatase-conjugated anti-mouse or anti-rabbit IgG antibody. […] Visualized protein bands were then digitized and quantified by using Adobe Photoshop CS4 (version 11.0) (Adobe, San Jose, CA, USA) and ImageJ Software (version 1.4) (http://rsb.info.nih.gov/ij/).

HeLa cells [2] = assay: Electron microscopy of organelle morphology; assay type: cell-based, human; settings: 3 days, Bu-DIF-3 5 µM, BODIPY-DIF-3 20 µM
Method: HeLa cells were incubated for 3 days with 2 ml DMEM-FBS containing 0.2% DMSO and 5 µM Bu-DIF-3 or 20 µM BODIPY-DIF-3 in 35-mm plastic dishes at 2×10^4 cells/dish. The cells were fixed at 4°C for 30 min with PB (0.1 M phosphate buffer, pH 7.4) containing 2% paraformaldehyde and 2% glutaraldehyde and then with PB containing 2% glutaraldehyde at 4°C overnight. The cell samples were rinsed 3 times with PB for 30 min each, followed by post fixation with 2% OsO4 in PB at 4°C for 1 h. The samples were dehydrated through a graded ethanol (EtOH) series starting with 50% and 70% EtOH for 5 min each at 4°C, then 90% EtOH for 5 min at room temperature, followed by three changes of 100% EtOH for 5 min each at room temperature. The samples were then transferred to a resin (Quetol-812; Nisshin EM Co., Tokyo, Japan) and polymerized at 60°C for 48 h. Ultra-thin (70 nm) sections were cut with an ultramicrotome (ULTRACUT UCT; Leica, Wetzlar, Germany), collected onto copper grids, stained with 2% uranyl acetate at room temperature for 15 min, and then rinsed with distilled water. The sections were then stained with Lead stain solution (Sigma-Aldrich) at room temperature for 3 min. The sections were observed under a transmission electron microscope (JEM-1200Ex; JEOL Ltd., Tokyo, Japan) at an acceleration voltage of 80 kV. Digital images (2048×2048 pixels) were taken with a charge-coupled device camera (VELETA; Olympus Soft Imaging Solutions GmbH, Tokyo, Japan).

HeLa cells [3] = assay: Withdrawal of BODIPY-DIF-3: recovery of cell growth and mitochondrial morphology; assay type: cell-based, human; settings: 20 µM 3 days, then 2 days DMSO
Method: In the assay of the effect of withdrawal of BODIPY-DIF-3 on cell growth (Figure 6A), HeLa cells were incubated for 3 days with 2 ml of DMEM-FBS containing 20 µM BODIPY-DIF-3 in 35-mm tissue culture dishes (Becton Dickinson, Franklin Lakes, NJ, USA) (5×10^3 cells/dish), washed 2 times with 2 ml of PBS(–), and further incubated for 2 days with 2 ml of DMEM-FBS containing 0.2% DMSO or 20 µM BODIPY-DIF-3; meanwhile, control cells were incubated for 5 days with 2 ml of DMEM-FBS containing 0.2% DMSO. Relative cell number was assessed as described above, and all experiments were performed in triplicate.

Row | Structure (SMILES) | Effect on cell growth in 3T3-L1 cells (3T3-L1 cells) | IC50 (3T3-L1 cells) | Expression of cyclin D1 [1] | Expression of cyclin D3 [1] | Lipid bodies in treated cells (HeLa cells [2]) | Number of swollen mitochondria (HeLa cells [2]) | Total number of mitochondria (HeLa cells [2]) | Reversibility of action after withdrawal at Day 3 (HeLa cells [3])
1 | CCCCCC(=O)c1c(O)cc(OCCCCNC(=O)CCC2=[N+]3C(=Cc4c(C)cc(C)n4[B-]3(F)F)C=C2)c(Cl)c1O [BODIPY-DIF-3] | dose-dependently suppressed cell growth | 20 µM | significantly decreased | significantly decreased | many lipid bodies were observed | increase in the number of swollen mitochondria | tended to cause a decrease | reversible
2 | CCCCCC(=O)c1c(O)cc(OCCCC)c(Cl)c1O [Bu-DIF-3, 1-(3-chloro-2,6-dihydroxy-4-butoxyphenyl)hexan-1-one] |  | 4.3 µM | significantly decreased | significantly decreased | many lipid bodies were observed | increase in the number of swollen mitochondria | tended to cause a decrease | 
3 | N#CC(C#N)=NNc1cccc(Cl)c1 [CCCP, carbonyl cyanide m-chlorophenylhydrazone, reference compound] | dose-dependently suppressed cell growth | 7.5 µM | significantly suppressed | significantly suppressed |  |  |  | 
4 | CCCCCC(=O)c1c(O)cc(OC)c(Cl)c1O [DIF-3, 1-(3-chloro-2,6-dihydroxy-4-methoxyphenyl)hexan-1-one] |  | > 20 µM | significantly decreased | significantly decreased |  |  |  | 
